The record followed here is patent US9079854B2 (priority 2007, dated 2015).

Read-outs that look alike come from different tables or passages of the source.

Data set [1] deals with tactile allodynia in a spinal nerve ligation neuropathic pain model. Briefly: Lumbar 5/6 spinal nerve ligation neuropathic pain model, mechanical paw withdrawal threshold (von Frey). In kind it is in vivo, rat. From the text: Neuropathic pain was induced following the methods of Kim and Chung. Kim S H, Chung J M. An experimental model for peripheral neuropathy produced by segmental spinal nerve ligation in the rat. Pain 1992; 50:355-63. Rats were anesthetized and placed prone under a microsurgical apparatus. A midline incision was made on the back, and the right paraspinal muscles were separated from the spinous processes at the L4-S2 levels. The L6 transverse process was carefully removed, and the L4/5 spinal nerves were identified. The L5 nerve was tightly ligated with a 6-0 silk suture. The right L6 spinal nerve was then located just caudal and medial to the sacroiliac junction and tightly ligated with a silk suture.
Two weeks later after spinal nerve ligation, Intrathecal catheters (PE-10 tubing) was inserted into the rats while they were anesthetized with isoflurane, as described by Yaksh and Rudy. Yaksh T L, Rudy T A. Chronic catheterization of the spinal subarachnoid space. Physiology & Behavior 1976; 17:1031-6. A midline incision was made on the back of the neck. The muscle was freed at the attachment to the skull exposing the cisternal membrane. The membrane was opened with a stab blade and an 8.5 cm polyethylene (PE-10) catheter was then inserted through the cisternal opening, and passed carefully and caudally into the intrathecal space at the L1-L3 spinal segments. The end of the catheter was tunneled through the subcutaneous space over the frontal bones, flushed with 10 μl saline, and then plugged with a short length of wire Animal testing was performed 5-7 days after intrathecal catheter placement.
To assess mechanical allodynia, the mechanical paw withdrawal threshold was measured with a series of von Frey hairs (range 0.4-15 g). Rats were placed in elevated Perspex enclosures (28 cm×15 cm×18 cm) with wire mesh bases and given 15-20 min to acclimatize to the testing environment. Rats will be allowed to acclimatize for 30 min in a clear plastic cage with a wire mesh bottom. The calibrated von Frey filament fibers were applied to the hindpaw briefly for 6 seconds to determine the paw withdrawal threshold before and after drug injection (intraperitoneally or intrathecally). A series of von Frey filaments with exponentially incremental stiffness (0.4, 0.7, 1.2, 2.0, 3.6, 5.5, 8.5 and 15 g) were used to measure the 50% threshold for hindpaw withdrawal in awake, unrestrained rats. Chaplan S R, Bach F W, Pogrel J W, Chung J M, Yaksh T L. Quantitative assessment of tactile allodynia in the rat paw. Journal of Neuroscience Methods 1994; 53:55-63. Brisk paw withdrawal from the pressure of a filament gently bent against the plantar paw was defined as a positive response, and absence of withdrawal within 6 s as a negative response. Filaments were touched to the hindpaw in sequential ascending or descending order until the threshold of response is crossed (allowing about 10 s between each increment of the von Frey filaments). Each time the threshold is crossed, the direction of stimulus presentation was reversed and the procedure will be resumed. Four responses were collected after the first threshold detection, and the 50% withdrawal thresholds were interpolated. In cases where response thresholds fell outside the range of detection, 15.00 and 0.25 g were, respectively, assigned for continuous negative or positive responses to the limit of stimuli.
All surgical procedures were performed under deep isoflurane anesthesia in 100% O2. The spinal nerve ligation (SNL) was performed as described previously. Kim, S. H., et al., An Experimental Model for Peripheral Neuropathy Produced by Segmental Spinal Nerve Ligation in the Rat, Pain, 1992, 50:355-63. Briefly, a midline incision above the lumbar spine exposed the left L6 transverse process. The process was then removed, the left L5 and L6 spinal nerves were isolated, and both nerves were tightly ligated with 6-0 silk. […]

Data set [2] concerns the target CB1 (Homo sapiens, UniProt P21554). Nature of the data set: CB1 functional assay, [35S]GTP-γ-S binding. Type of data set: biochemical. Also on record: purchased ES-110-MG; host or cells: CHO membrane extracts.

Usually ED50 stands for the dose at which the effect has come halfway, by size or by number of responders. For orientation: EC50 means the concentration that produces a half-maximal response. As usually defined, the Emax is the maximal effect, on the per cent scale that the assay sets.

Chain of CB1 (P21554 whole entry): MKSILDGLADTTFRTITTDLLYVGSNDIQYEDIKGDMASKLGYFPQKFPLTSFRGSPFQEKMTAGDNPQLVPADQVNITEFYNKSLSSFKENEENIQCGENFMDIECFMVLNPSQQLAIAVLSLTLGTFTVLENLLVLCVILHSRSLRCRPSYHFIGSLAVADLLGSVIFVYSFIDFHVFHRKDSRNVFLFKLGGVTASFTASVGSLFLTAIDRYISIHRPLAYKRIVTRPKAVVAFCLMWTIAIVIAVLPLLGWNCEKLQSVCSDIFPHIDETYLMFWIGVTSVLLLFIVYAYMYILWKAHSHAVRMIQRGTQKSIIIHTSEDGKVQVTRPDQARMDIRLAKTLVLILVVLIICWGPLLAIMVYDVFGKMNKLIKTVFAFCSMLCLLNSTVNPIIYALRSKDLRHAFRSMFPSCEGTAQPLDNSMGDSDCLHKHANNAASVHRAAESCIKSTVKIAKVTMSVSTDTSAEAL

As for `CCCCCCN1C(=O)/C(=N\NC(=O)c2ccccc2)c2ccccc21` [Example 6, Benzoic acid [1-n-hexyl-2-oxo-1,2-dihydro-indol-3-ylidene]-hydrazide], in data set [1] (IP 30 mg/kg, rats), the “duration of peak threshold” value is on record as “one”. Moreover, the “peak paw withdrawal threshold” value in data set [1] (IP 30 mg/kg, rats) came out at 15 g. Also, the “time of peak effect following administration” value in data set [1] (IP 30 mg/kg, rats) is not above 5 min. In data set [1] (IP administration of 30 mg/kg in 0.5 ml, rats), the “effect on mechanical paw withdrawal threshold” value is on record as “produced an increase in mechanical paw withdrawal threshold”. In addition, the median effective dose (ED50) in data set [1] (Rattus norvegicus, ip, rats, spinal nerve ligation, 95% CI, read-out: ED50 of the anti-allodynic effect) was 5.9 mg/kg. For the same molecule, the “ED90 of the anti-allodynic effect” value in data set [1] (i.p., rats, spinal nerve ligation, 95% CI) is 12 (95% CI 9.6-15.5) mg/kg. For the same molecule, the “effect on paw withdrawal threshold” value in data set [1] (intrathecal (IT) administration, at 5 min, rats) is recorded as “short-lived modest increase in paw withdrawal threshold”. Besides, in data set [1] (rats of the nerve-ligation study), the “behavioral abnormalities or side effects” value was “No behavioral abnormalities or side effects were noted”. Also, the “% Activation Average” value in data set [2] (CB1 Functional Activity) was 59.65%. The “Compound Activity” value in data set [2] (CB1 Functional Activity) is “Agonist”. The EC50 in data set [2] (CB1 Functional Activity, read-out: EC50 (nM) for GTP Binding) is 867 nM; in data set [2] (Table 7, mean of two determinations, read-out: [35S]GTP-γ-S (hCB1) EC50 (nM ± SEM)), 867 ± 1.1 nM; in data set [2] (Table 9, mean of two determinations, read-out: [35S]GTP-γ-S hCB1 EC50 (nM ± SEM)), 867 ± 1.1 nM. Further, the Emax in data set [2] (Table 7, relative to the efficacy of CP55940) turned out to be 59.7%; in data set [2] (Table 9, relative to the efficacy of CP 55,940) it was 59.7%.
